This is an account of results in patent publication US20190225650A1, “PEPTIDOMIMETIC MACROCYCLES AND USE THEREOF IN REGULATING HIF1ALPHA” (AILERON THERAPEUTICS, INC., priority 2013, published 2019).

Bridge positions count the residues as written; N and C are the ends. Square brackets hold non-standard residues; d marks the D form. Peptide text beside a SMILES is read from it. R8 = C=CCCCCCC[C@@](C)(N)C(=O)O; S5 = C=CCCC[C@](C)(N)C(=O)O; Nle = CCCC[C@H](N)C(=O)O; Dap = NC[C@H](N)C(=O)O

The test system of the assay is HRE-bla ME-180 cells. The assay is described as follows: Reporter gene assay (HRE-bla ME-180 HIF reporter, GeneBLAzer). Format: cell-based, human. The settings on record: for EC50: 24 hour normoxia. The method, then:
The following reagents were used:
• DMEM+GutaMAX: (#10569044, Invitrogen) • Black clear bottom plates: (#3603, Costar) • HRE-bla-ME-180 cell line: (#K1644, Invitrogen) • Gene-Blazer reagent & protocol: (#K1096, Invitrogen) • Plate reader: Biotek Synergy 2 • Chetomin: (C9623, Sigma)
4 hours prior to experiment: HRE-bla ME-180 cells were seeded at a density of 20,000 cells/well in a volume of 180 μl in black clear bottom 96-well plates. 180 μl of assay medium was added to the cell-free control wells. Incubation was conducted at 37° C., 5% CO2 for 4 hours.
Diluted chetomin was used as a positive control. Chetomin was diluted in 100% DMSO to a 10 mM stock concentration. A 1 mM stock of chetomin was prepared in 100% DMSO. Then the 1 mM chetomin stock was serially diluted in 1:4 in 100% DMSO. Finally, 50, 12.5, 3.125, 0.78, 0.2, 0.05 μM stock of chetomin in 5% DMSO/water were prepared by adding 114 μL water+6 μL chetomin in DMSO.
Test peptides were diluted before use. The test peptides were diluted in 100% DMSO to a 10 mM stock concentration. Then each 10 mM peptide stock was diluted in 1:3 in 100% DMSO. Finally, 300, 100, 33.3, 11.1, 3.7, 1.2 μM stock of each peptide in 5% DMSO/water were prepared by adding 129.2 μL water+4 μL peptide in DMSO.
20 μl of peptide, chetomin dilution, or DMSO/water control were added to the appropriate wells of a plate to achieve 200 μL final volumes in 0.3% DMSO/media. The plate was first incubated for 18-20 hours in normoxia incubator (37° C. in humidified 5% CO2, 20% O2 atmosphere). Then the plate was transferred to hypoxia incubator for 24 hours (37° C. in humidified 5% CO2, 1% O2 atmosphere)
6× LiveBLAzer™-FRET B/G (CCF4-AM) Substrate Mixture was prepared according to CellSensor™ HRE-bla ME-180 Cell-based Assay Protocol (Invitrogen) and added into each well. Solution A (CCF4-AM) was reconstituted in DMSO to a working concentration of 1 mM, divided in aliquots, and stored at −20° C. The 6× LiveBLAzer-FRET B/G (CCF4-AM) Substrate mixture was prepared by mixing 6 μl of Solution A, 60 μl of Solution B, and 934 μl Solution C.
The plates were removed from incubator and equilibrated to RT for a few minutes. Then 20 μl of 6× Substrate mixture was added to each well. The plates were then incubated at room temperature for 3 hr in the dark and read at 409 Ex/460Em and 409Ex/530Em using the “GeneBlazer-Tungsten with export” program on the Synergy 2.
The average percentage of maximum inhibition was obtained by comparing the peptide treated cells (30 μM) to DMSO vehicle control treated cells. The results are shown in the columns “ME-180 HIF Reporter EC50 (μM) −24 hr normoxia” and “18 h Avg % max inhibition at top conc (HIF Rptr-24 hrsnormoxia) (μM)” of Table 6.
On the technique in general: In a reporter assay the amount or activity of a reporter protein is the signal.

For orientation: EC50 means the concentration that produces a half-maximal response. In the case of `CCCC[C@H](NC(=O)[C@H](CC(C)C)NC(=O)[C@@H](NC(=O)[C@H](CCC(=O)O)NC(=O)[C@H](CCC(=O)O)NC(=O)[C@H](CC(=O)O)NC(=O)[C@@H](NC(=O)[C@H](Cc1ccccc1)NC(C)=O)[C@@H](C)CC)C(C)C)C(=O)N[C@@]1(C)CCCC=CCCC[C@@](C)(C(=O)N[C@@H](CCCC)C(=O)N[C@@H](C)C(=O)N[C@@H](CC(C)C)C(=O)N[C@@H](CC(=O)O)C(=O)N[C@@H](CCCNC(=N)N)C(=O)N[C@H](C(N)=O)[C@@H](C)CC)NC(=O)[C@H]([C@@H](C)CC)NC(=O)[C@H](CO)NC(=O)[C@H](CC(C)C)NC1=O` [SP-52] (Ac-FIDEEVL[Nle][S5]LSI[S5][Nle]ALDRI-NH2; staple 9-13), the “18 h Avg % max inhibition at top conc (HIF Rptr-24 hrs normoxia) (μM)” value (shortened to “18 h Avg % max inhibition at top conc”) is reported as “++++ (≥50: ++++)” and the EC50 was 15 to 30 µM.
Turning to `CCCC[C@H](NC(=O)[C@H](CC(C)C)NC(=O)[C@@H](NC(=O)[C@H](CCC(=O)O)NC(=O)[C@H](CCC(=O)O)NC(=O)[C@H](CC(=O)O)NC(=O)[C@@H](NC(=O)[C@H](Cc1ccccc1)NC(C)=O)[C@@H](C)CC)C(C)C)C(=O)N[C@@]1(C)CCCC=CCCC[C@@](C)(C(=O)N[C@@H](CCCC)C(=O)N[C@@H](C)C(=O)N[C@@H](CC(C)C)C(=O)N[C@@H](CC(=O)O)C(=O)N[C@@H](C)C(=O)N[C@H](C(N)=O)[C@@H](C)CC)NC(=O)[C@H]([C@@H](C)CC)NC(=O)[C@H](C(C)C)NC(=O)[C@H](CC(C)C)NC1=O` [SP-24] (Ac-FIDEEVL[Nle][S5]LVI[S5][Nle]ALDAI-NH2; staple 9-13), the “18 h Avg % max inhibition at top conc” value is “++++ (≥50: ++++)” and the EC50 is 5 to 15 µM.
The like results for `CCCC[C@H](NC(=O)[C@H](CCC(=O)O)NC(=O)[C@@H](NC(=O)[C@H](CCC(=O)O)NC(=O)[C@H](CCC(=O)O)NC(=O)[C@H](CC(=O)O)NC(=O)[C@@H](NC(=O)[C@H](Cc1ccccc1)NC(C)=O)[C@@H](C)CC)C(C)C)C(=O)N[C@@]1(C)CCCC=CCCC[C@@](C)(C(=O)N[C@@H](CCCC)C(=O)N[C@@H](C)C(=O)N[C@@H](CC(C)C)C(=O)N[C@@H](CC(=O)O)C(=O)N[C@@H](CCCNC(=N)N)C(=O)N[C@H](C(N)=O)[C@@H](C)CC)NC(=O)[C@H]([C@@H](C)CC)NC(=O)[C@H](C(C)C)NC(=O)[C@H](CC(C)C)NC1=O` [SP-33] (Ac-FIDEEVE[Nle][S5]LVI[S5][Nle]ALDRI-NH2; staple 9-13) were, in that order, “+++ (≤25 but <50: +++)” and above 30 µM.
As for `CC[C@H](C)[C@H](NC(=O)[C@H](Cc1ccccc1)NC(C)=O)C(=O)N[C@@H](CC(=O)O)C(=O)N[C@@H](CCC(=O)O)C(=O)N[C@@H](CCC(=O)O)C(=O)N[C@H](C(=O)N[C@]1(C)CCCCCCC=CCCC[C@@](C)(C(=O)NCC(=O)N[C@@H](CC(C)C)C(=O)N[C@@H](CC(=O)O)C(=O)N[C@@H](CCCNC(=N)N)C(=O)N[C@H](C(=O)N[C@@H](CCCCN)C(=O)N[C@@H](CCC(=O)O)C(=O)N[C@@H](CC(C)C)C(=O)N2CCC[C@H]2C(=O)N[C@@H](CCC(=O)O)C(=O)N[C@@H](CC(C)C)C(=O)N[C@@H](Cc2c[nH]c3ccccc23)C(=O)N[C@@H](CC(C)C)C(N)=O)[C@@H](C)CC)NC(=O)[C@H](CCC(=O)O)NC(=O)[C@H]([C@@H](C)CC)NC(=O)[C@H](C(C)C)NC(=O)[C@H](CC(C)C)NC(=O)[C@H](CO)NC(=O)[C@H](CCSC)NC1=O)C(C)C` [SP-84] (Ac-FIDEEV[R8]MSLVIE[S5]GLDRIKELPELWL-NH2; staple 7-14), the “18 h Avg % max inhibition at top conc” value is reported as “+ (<10: +)” and the EC50 was above 30 µM.
Turning to `CC[C@H](C)[C@H](NC(=O)[C@H](CCCNC(=N)N)NC(=O)[C@H](CC(=O)O)NC(=O)[C@H](CC(C)C)NC(=O)CNC(=O)[C@H](CCSC)NC(=O)[C@H](CCC(=O)O)NC(=O)[C@@H](NC(=O)[C@@H](NC(=O)[C@H](CC(C)C)NC(=O)[C@H](CO)NC(=O)[C@]1(C)CCCC=CCCC[C@](C)(NC(=O)[C@H](CC(=O)O)NC(=O)[C@@H](NC(=O)[C@H](Cc2ccccc2)NC(C)=O)[C@@H](C)CC)C(=O)N[C@@H](CCC(=O)O)C(=O)N[C@@H](C(C)C)C(=O)N[C@@H](CC(C)C)C(=O)N1)C(C)C)[C@@H](C)CC)C(=O)N[C@@H](CCCCN)C(=O)N[C@@H](CCC(=O)O)C(=O)N[C@@H](CC(C)C)C(=O)N1CCC[C@H]1C(=O)N[C@@H](CCC(=O)O)C(=O)N[C@@H](CC(C)C)C(=O)N[C@@H](Cc1c[nH]c2ccccc12)C(=O)N[C@@H](CC(C)C)C(N)=O` [SP-76] (Ac-FID[S5]EVL[S5]SLVIEMGLDRIKELPELWL-NH2; staple 4-8), the “18 h Avg % max inhibition at top conc” value was “+ (<10: +)” and the EC50 was above 30 µM.
The like results for `CCCC[C@H](NC(=O)[C@H](CC(C)C)NC(=O)[C@@H](NC(=O)[C@H](CCC(=O)O)NC(=O)[C@H](CCC(=O)O)NC(=O)[C@H](CC(=O)O)NC(=O)[C@@H](NC(=O)[C@H](C)NC(C)=O)[C@@H](C)CC)C(C)C)C(=O)N[C@@]1(C)CCCC=CCCC[C@@](C)(C(=O)N[C@@H](CCCC)C(=O)N[C@@H](C)C(=O)N[C@@H](CC(C)C)C(=O)N[C@@H](CC(=O)O)C(=O)N[C@@H](CCCNC(=N)N)C(=O)N[C@H](C(N)=O)[C@@H](C)CC)NC(=O)[C@H]([C@@H](C)CC)NC(=O)[C@H](C(C)C)NC(=O)[C@H](CC(C)C)NC1=O` [SP-9] (Ac-AIDEEVL[Nle][S5]LVI[S5][Nle]ALDRI-NH2; staple 9-13) were, in that order, “+++ (≤25 but <50: +++)” and 15 to 30 µM.
The like results for `CCCC[C@H](NC(=O)[C@H](CC(C)C)NC(=O)[C@@H](NC(=O)[C@H](CCC(=O)O)NC(=O)[C@H](CCC(=O)O)NC(=O)[C@H](CC(=O)O)NC(=O)[C@@H](NC(=O)[C@H](Cc1ccccc1)NC(C)=O)[C@@H](C)CC)C(C)C)C(=O)N[C@@]1(C)CCCC=CCCC[C@@](C)(C(=O)N[C@@H](CN)C(=O)N[C@@H](C)C(=O)N[C@@H](CC(C)C)C(=O)N[C@@H](CC(=O)O)C(=O)N[C@@H](CCCNC(=N)N)C(=O)N[C@H](C(N)=O)[C@@H](C)CC)NC(=O)[C@H]([C@@H](C)CC)NC(=O)[C@H](C(C)C)NC(=O)[C@H](CC(C)C)NC1=O` [SP-66] (Ac-FIDEEVL[Nle][S5]LVI[S5][Dap]ALDRI-NH2; staple 9-13) were, in that order, “++ (≤10 but <25: ++)” and above 30 µM.
`CC[C@H](C)[C@H](NC(C)=O)C(=O)N[C@@H](CC(=O)O)C(=O)N[C@@H](CCC(=O)O)C(=O)N[C@@H](CCC(=O)O)C(=O)N[C@H](C(=O)N[C@@H](CC(C)C)C(=O)N[C@@H](CCSC)C(=O)N[C@@]1(C)CCCC=CCCC[C@@](C)(C(=O)N[C@@H](CCSC)C(=O)NCC(=O)N[C@@H](CC(C)C)C(=O)N[C@@H](CC(=O)O)C(=O)N[C@@H](CCCNC(=N)N)C(=O)N[C@H](C(=O)N[C@@H](CCCCN)C(=O)N[C@@H](CCC(=O)O)C(=O)N[C@@H](CC(C)C)C(=O)N2CCC[C@H]2C(=O)N[C@@H](CCC(=O)O)C(=O)N[C@@H](CC(C)C)C(=O)N[C@@H](Cc2c[nH]c3ccccc23)C(=O)N[C@@H](CC(C)C)C(N)=O)[C@@H](C)CC)NC(=O)[C@H]([C@@H](C)CC)NC(=O)[C@H](C(C)C)NC(=O)[C@H](CC(C)C)NC1=O)C(C)C` [SP-86] (Ac-IDEEVLM[S5]LVI[S5]MGLDRIKELPELWL-NH2; staple 8-12): the “18 h Avg % max inhibition at top conc” value is “++++ (≥50: ++++)” and the EC50 is 5 to 15 µM.
For `CCCC[C@H](NC(=O)[C@H](CC(C)C)NC(=O)[C@@H](NC(=O)[C@H](CO)NC(=O)[C@H](CCC(=O)O)NC(=O)[C@H](CC(=O)O)NC(=O)[C@@H](NC(=O)[C@H](Cc1ccccc1)NC(C)=O)[C@@H](C)CC)C(C)C)C(=O)N[C@@]1(C)CCCC=CCCC[C@@](C)(C(=O)N[C@@H](CCCC)C(=O)N[C@@H](C)C(=O)N[C@@H](CC(C)C)C(=O)N[C@@H](CC(=O)O)C(=O)N[C@@H](CCCNC(=N)N)C(=O)N[C@H](C(N)=O)[C@@H](C)CC)NC(=O)[C@H]([C@@H](C)CC)NC(=O)[C@H](C(C)C)NC(=O)[C@H](CC(C)C)NC1=O` [SP-47] (Ac-FIDESVL[Nle][S5]LVI[S5][Nle]ALDRI-NH2; staple 9-13), the “18 h Avg % max inhibition at top conc” value is recorded as “++++ (≥50: ++++)” and the EC50 was 5 to 15 µM.
